Results from patent US11040053B2, “Compositions and methods for activating “stimulator of interferon gene”13 dependent signalling” (CHINOOK THERAPEUTICS, INC., priority 2015, dated 2021).

Legend:
HAQ allele hSTING = target: T1, HAQ allele hSTING (Homo sapiens, UniProt Q86WV6, G230A/H232R/R293Q); assay: Differential scanning fluorometry (DSF) binding to purified hSTING HAQ allele; details: for hSTING Tm Shift HAQ: DSF, 1 mg/ml STING AA140-379, ligand 1 mM
T1 construct: DNA encoding amino acids 140-379 (amino acid numbering corresponding to Swiss Prot Q86WV6); 6xHIS (N, cleaved yes); SUMO (N, cleaved yes); made in house; host or cells: Rosetta2 (DE3) E. coli
Procedure: (§1) Cells were grown in lysogeny broth at 37° C. until a […] absorbance of 0.6 was reached. […] Cell pellets were re-suspended on ice in a buffer containing 50 mM Tris hydrochloride (Tris-HCl) pH 7.5, 500 mM sodium chloride (NaCl), 20 mM imidazole, 10% glycerol, 1 mM tris(2-carboxyethyl)phosphine hydrochloride (TCEP) and protease inhibitor tablet (Pierce) (Buffer A). Cells were lysed using an S-450D sonifier (Emmerson industrial) on ice. […] Protein was aliquoted, flash frozen in liquid nitrogen and stored at −80° C. until use.
(§2) The protein is heated in the presence of a dye that binds to and fluoresces in hydrophobic environments. The protein is thermally denatured by heating resulting in increased dye binding to the unfolded protein and fluorescence. The temperature midpoint (Tm) of a proteins denaturation is established by calculating the half maximal value of the denaturation curve. The temperature midpoint of the protein in the presence of a ligand is directly related to the affinity of the ligand for the protein and therefore its ability to stabilize the protein at higher temperatures.
(§3) Samples were placed in hard shell PCR plate (Bio-Rad). The fluorescence as a function of temperature was recorded in a CFX 96 real time PCR machine (Bio-Rad) reading on the HEX channel, excitation 450-490, emission 560-580 nm. The temperature gradient was from 15-80° C. ramping 0.5° C. per 15 seconds and recording every 0.5° C. After subtraction of the background signal from a sample lacking protein and ligand. The midpoint temperature (Tm) was calculated by fitting the curves of the fluorescence as a function of temperature to a Boltzmann sigmoidal function (Graph Pad Prism).

hSTING(WT) = hSTING(WT) (Homo sapiens, UniProt Q86WV6, H232R); assay: Differential scanning fluorometry (DSF) binding to purified hSTING WT; parameters: DNA encoding amino acids 140-379 (amino acid numbering corresponding to Swiss Prot Q86WV6); 6xHIS (N, cleaved yes); SUMO (N, cleaved yes); made in house; host or cells: Rosetta2 (DE3) E. coli; details: for hSTING Tm Shift WT: DSF, 1 mg/ml STING AA140-379, ligand 1 mM
Procedure: as §1, §2, §3

hSTING(REF) = hSTING(REF) (Homo sapiens, UniProt Q86WV6); assay: Differential scanning fluorometry (DSF) binding to purified hSTING REF allele; parameters: DNA encoding amino acids 140-379 (amino acid numbering corresponding to Swiss Prot Q86WV6); 6xHIS (N, cleaved yes); SUMO (N, cleaved yes); made in house; host or cells: Rosetta2 (DE3) E. coli; details: for hSTING Tm Shift REF: DSF, 1 mg/ml STING AA140-379, ligand 1 mM
Procedure: as §1, §2, §3

hSTING HAQ allele = target: T2, hSTING HAQ allele (Homo sapiens, UniProt Q86WV6, G230A/H232R/R293Q/R71H); assay: IRF-3 inducible secreted luciferase reporter in THP1-Dual cells without digitonin; assay type: cell-based; details: for EC50: without digitonin in THP1 cells (HAQ allele)
T2 construct: a human monocyte cell line containing the hSTING HAQ allele; host or cells: THP1-Dual cells
Procedure: After 30 minutes, cells were washed and fresh RPMI media containing 10% FBS was added, and cells were incubated at 37° C. with 5% CO2 Cell culture supernatants from each sample were collected after overnight incubation, and 10 μL of the cell culture supernatants was added to 50 μL QUANTI-Luc reagent (Invivogen). Type I interferon activation was determined by measuring secreted luciferase levels on a SpectraMax M3 spectrophotometer (Molecular Devices). The EC50 value was determined from the dose-response curve for the 10 concentrations from the serial dilution of the reference compounds and compounds of the invention tested in this assay as listed in Table 5.

T2 sequence (Q86WV6 whole entry R71H/G230A/H232R/R293Q): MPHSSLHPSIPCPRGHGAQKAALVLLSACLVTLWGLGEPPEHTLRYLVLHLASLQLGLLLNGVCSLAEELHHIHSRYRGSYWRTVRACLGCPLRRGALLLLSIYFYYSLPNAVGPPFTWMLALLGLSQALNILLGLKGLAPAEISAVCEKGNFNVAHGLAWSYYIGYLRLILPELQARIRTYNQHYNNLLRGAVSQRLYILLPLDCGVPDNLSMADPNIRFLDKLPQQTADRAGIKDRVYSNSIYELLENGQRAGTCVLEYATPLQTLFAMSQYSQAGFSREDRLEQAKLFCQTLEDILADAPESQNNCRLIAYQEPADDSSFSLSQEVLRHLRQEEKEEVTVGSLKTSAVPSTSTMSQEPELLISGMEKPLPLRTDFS
hSTING(WT), sequence (Q86WV6 140-379 H232R): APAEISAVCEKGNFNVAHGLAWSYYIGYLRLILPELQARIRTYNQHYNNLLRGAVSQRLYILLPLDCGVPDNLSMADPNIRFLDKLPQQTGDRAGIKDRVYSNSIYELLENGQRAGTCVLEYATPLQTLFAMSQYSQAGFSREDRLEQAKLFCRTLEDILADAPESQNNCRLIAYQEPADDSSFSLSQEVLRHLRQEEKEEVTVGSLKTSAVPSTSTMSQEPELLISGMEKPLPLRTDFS
T1 sequence (Q86WV6 140-379 G230A/H232R/R293Q limits assumed): as the sequence (Q86WV6 140-379 H232R) above, with G91A, R154Q counted along it
hSTING(REF), sequence (Q86WV6 140-379): as the sequence (Q86WV6 140-379 H232R) above, with R93H counted along it

Row | Compound | hSTING Tm Shift HAQ (HAQ allele hSTING) [°C] | hSTING Tm Shift WT (hSTING(WT)) [°C] | hSTING Tm Shift REF (hSTING(REF)) [°C] | EC50 (hSTING HAQ allele) [µM] | binding relative to OH reference compound, in words (HAQ allele hSTING; Table 4 comment, HAQ allele hSTING) | activity relative to OH reference compound, in words (hSTING HAQ allele; Table 5 comment, THP1 cells without digitonin) | binding relative to OH reference compound, in words (hSTING(WT); Table 4 comment, wild type hSTING) | binding relative to OH reference compound, in words (hSTING(REF); Table 4 comment, REF allele hSTING)
1 | Nc1nc2c(ncn2[C@@H]2O[C@@H]3COP(=O)(O)O[C@H]4[C@@H](O)[C@H](n5cnc6c(=O)[nH]c(N)nc65)O[C@@H]4COP(=O)(O)O[C@H]3[C@H]2O)c(=O)[nH]1 [3'3'-(G)(G), cyclic-[G(3′,5′)p-G(3′,5′)p], reference compound] | 9.97 | 6.1 | 6.1 | – | – | – | – | –
2 | Nc1nc2c(ncn2[C@@H]2O[C@@H]3CO[P@@](=O)(S)O[C@H]4[C@@H](O)[C@H](n5cnc6c(N)ncnc65)O[C@@H]4CO[P@@](=O)(S)O[C@H]3[C@H]2O)c(=O)[nH]1 [3'3'-RR-(G)(A), reference compound] | 21.0 | 11.1 | 7.2 | 28 | – | – | – | –
3 | Nc1nc2c(ncn2[C@@H]2O[C@@H]3CO[P@@](=O)(S)O[C@H]4[C@@H](O)[C@H](n5cnc6c(=O)[nH]c(N)nc65)O[C@@H]4CO[P@@](=O)(S)O[C@H]3[C@H]2O)c(=O)[nH]1 [3'3'-RR-(G)(G), dithio-(Rp,Rp)-cyclic-[G(3′,5′)p-G(3′,5′)p], reference compound] | 15.3 | 9.5 | 10.3 | 75 | – | – | – | –
4 | Nc1ncnc2c1ncn2[C@@H]1O[C@@H]2CO[P@@](=O)(S)O[C@H]3[C@H](F)[C@H](n4cnc5c(N)ncnc54)O[C@@H]3CO[P@@](=O)(S)O[C@H]2[C@@H]1F [Compound 7, (2R,3S,3aR,5R,7aR,9R,10S,10aR,12R,14aR)-2,9-bis(6-amino-9H-purin-9-yl)-3,10-difluoro-5,12-dimercaptooctahydro-2H,7H-difuro[3,2-d:3′,2′-j][1,3,7,9]tetraoxa[2,8]diphosphacyclododecine 5,12-dioxide] | 11.2 | 3.1 | 0.3 | 284 | – | – | – | –

Now from value to molecule:

Row | hSTING Tm Shift HAQ (HAQ allele hSTING) [°C] | hSTING Tm Shift WT (hSTING(WT)) [°C] | hSTING Tm Shift REF (hSTING(REF)) [°C] | EC50 (hSTING HAQ allele) [µM] | binding relative to OH reference compound, in words (HAQ allele hSTING; Table 4 comment, HAQ allele hSTING) | activity relative to OH reference compound, in words (hSTING HAQ allele; Table 5 comment, THP1 cells without digitonin) | binding relative to OH reference compound, in words (hSTING(WT); Table 4 comment, wild type hSTING) | binding relative to OH reference compound, in words (hSTING(REF); Table 4 comment, REF allele hSTING) | Compound
5 | 3.1 | 0.1 | 0 | > 150 | – | – | – | – | Nc1ncnc2c1ncn2[C@@H]1O[C@@H]2CO[P@@](=O)(S)O[C@H]3[C@H](F)[C@H](n4cnc5c(N)ncnc54)O[C@@H]3CO[P@](=O)(S)O[C@H]2[C@@H]1F [Compound 7a, (2R,3 S,3aR,5R,7aR,9R,10S,10aR,12S,14aR)-2,9-bis(6-amino-9H-purin-9-yl)-3,10-difluoro-5,12-dimercaptooctahydro-2H,7H-difuro [3,2-d:3′,2′-j][1,3,7,9]tetraoxa[2,8]diphosphacyclododecine 5,12-dioxide]
6 | 22.6 | 12.6 | 11.4 | 8 | improved binding | improved activity | improved binding | improved binding | Nc1nc2c(ncn2[C@@H]2O[C@@H]3CO[P@@](=O)(S)O[C@H]4[C@@H](F)[C@H](n5cnc6c(=O)[nH]c(N)nc65)O[C@@H]4CO[P@@](=O)(S)O[C@H]3[C@H]2F)c(=O)[nH]1 [Compound 17, 9,9′-((2R,3R,3aR,5R,7aR,9R,10R,10aR,12R,14aR)-3,10-difluoro-5,12-dimercapto-5,12-dioxidooctahydro-2H,7H-difuro [3,2-d:3′,2′-j][1,3,7,9]tetraoxa[2,8]diphosphacyclododecine-2,9-diyl)bis(2-amino-1,9-dihydro-6H-purin-6-one)]
7 | – | – | – | > 150 | – | – | – | – | Nc1nc2c(ncn2[C@@H]2O[C@@H]3CO[P@@](=O)(S)O[C@H]4[C@@H](F)[C@H](n5cnc6c(=O)[nH]c(N)nc65)O[C@@H]4CO[P@](=O)(S)O[C@H]3[C@H]2F)c(=O)[nH]1 [Compound 17a, 9,9′-((2R,3R,3aR,5R,7aR,9R,10R,10aR,12S,14aR)-3,10-difluoro-5,12-dimercapto-5,12-dioxidooctahydro-2H,7H-difuro [3,2-d:3′,2′-j][1,3,7,9]tetraoxa[2,8]diphosphacyclododecine-2,9-diyl)bis(2-amino-1,9-dihydro-6H-purin-6-one)]
